Laboratory results as given in patent US10618874B2, “Compounds, cosmetic composition and pharmaceutical composition comprising the same” (INCOSPHARM CORPORATION, priority 2018, dated 2020).

Columns and labels:
[1] = test system: mushroom tyrosinase; test: tyrosinase activity inhibition assay; assay type: biochemical; details: 10, 100, 1000 and 10000 ppm; 37° C., 1 hour; FIG. 2
Description: As a specific experimental method, mushroom tyrosinase was diluted with a 0.1 M sodium phosphate buffer at 2 unit/ul and dissolved in water at 0.03 wt % of tyrosine. Each experiment group listed in the following Table 1 was also diluted in the 0.1 M sodium phosphate buffer at 10, 100, 1000, and 10000 ppm and mixed as listed in Table 1. Reaction was performed at 37° C. for 1 hour and absorbance was measured, respectively (wavelength: 490 nm, Epoch, BioTek). Based on the results, a tyrosinase inhibition ratio relative to a control group was calculated. [table]

[2] = test system: keratinocytes (HEKn) with ATG5 knocked down; test: melanin pigmentation inhibition and autophagy proteins in ATG5 knocked-down keratinocytes; assay type: cell-based, human; details: 10 μM, FIG. 10; for expression activity of LC3-II and ATG5: western blot
Source text: In order to analyze whether melanin deposition inhibition activity on keratinocytes by treatment with Compound 1 and Compound 2 depends on autophagy activation, ATG5 which is the protein required for autophagy activation was knocked down and treated with melanin to analyze a pigmentation inhibition activity change.
As a specific experimental method, ATG5 siRNA was mixed according to the method of transfection reagent (RNAiMAX, cat #13778-075, Thermo) and deposited in keratinocytes (HEKn, cat # C0015C, Gibco). After 8 hours, Compound 1 and Compound 2 were diluted with Epilife (cat # MEPI500CA, Gibco) without a supplement and an antibiotic to a final concentration of 10 μM for treatment, and cells which were further cultured for 64 hours were dissolved using a cell lysis buffer containing a proteolysis inhibitor. The entire dissolved solution was fractionized using a centrifuge and only the solution containing proteins was extracted. The extracted proteins were quantified by a bicinchoninic acid (BCA) method. 20 μg of proteins were separated by 10% SDS-polyacrylamide gel electrophoresis and transferred to a nitrocellulose film. The film to which the proteins were transferred was blocked by a tris-buffered saline/0.05% Tween-20 (TBS-T) solution containing 5% BSA (bovine serum albumin, Gendepot, Cat # A0100-010) for decreasing a non-specific bonding at room temperature for 1 hour, and then a primary antibody was reacted under the condition of 4° C. overnight and a secondary antibody was reacted at room temperature for 1 hour. For visualization, an enhance chemiluminescence system was used. Then, in order to analyze melanin pigmentation inhibition activity, transfection and treatment with the compounds were performed identically, and then 10 mg/ml of melanin was added by 2 μl at a time and culturing was further performed for 2 hours. The culture medium was removed after completion of culturing, cells were separated from the plate using Trypsin-EDTA (cat # LS-015-09, WELGENE), transferred to a 1.5 ml tube and spun down, a photograph of the pellet was taken, and the absorbance of a solution of the pellet dissolved in 1N NaOH was measured (wavelength: 400 nm, Epoch, BioTek).

[3] = test system: LC3 (light chain 3; autophagy marker) in keratinocytes (HEKn); test: western blot on LC3 protein in keratinocytes (autophagy activation); assay type: cell-based, human; details: FIG. 8
Description: (§1) For intracellular autophagy analysis by treatment with Compound 1 obtained in the above Example, a western blot was performed on a LC3 (light chain 3; autophagy marker) protein. In addition, for analysis of change in endocytosis-related genes by treatment with Compound 2 obtained in the above Example, qPCR was performed on PAR2, AAK1 (AP2 Associated Kinase 1).
As a specific experimental method, keratinocytes (HEKn, cat # C0015C, Gibco) was treated with Compound 1 and dissolved using a cell lysis buffer containing a proteolysis inhibitor. The entire dissolved solution was fractionized using a centrifuge and only the solution containing proteins was extracted. The extracted proteins were quantified by a bicinchoninic acid (BCA) method. 20 μg of proteins were separated by 10% SDS-polyacrylamide gel electrophoresis and transferred to a nitrocellulose film. The film to which the proteins were transferred was blocked by a tris-buffered saline/0.05% Tween-20 (TBS-T) solution containing 5% non-fat milk for decreasing a non-specific bonding at room temperature for 1 hour, and then a primary antibody was reacted under the condition of 4° C. overnight and a secondary antibody was reacted at room temperature for 1 hour. For visualization, an enhanced chemiluminescence system was used.

[4] = test system: keratinocytes (HEKn); test: melanosome degradation: confocal and transmission electron microscopy of keratinocytes given melanosomes; assay type: cell-based, human; details: 10 μM; confocal microscope; FIG. 11
Description: In order to confirm whether melanosome and autuphagosome are co-localized by treatment with Compound 1 and Compound 2 obtained in the above Examples, analysis was performed with an electron microscope and a confocal microscope.
As a specific experimental method, Lysis Buffer (Tris 20 mM, NaCl 150 mM, EDTA 1 mM, sucrose 250 mM in DW) was added to melanin cells (HEMn-DP, cat # C2025C, Gibco) containing human-derived melanin at high concentration, freezing and thawing were repeated twice to break a cell membrane, and centrifugation was performed at 1000×g for 5 minutes, thereby obtaining a supernatant. Cushion Buffer (Tris 20 mM, NaCl 150 mM, EDTA 1 mM, sucrose 1.5M in DW) was placed in an ultracentrifuge tube, the same amount of supernatant was added thereto, and then centrifugation was performed under the conditions of 25,000 rpm, […], and 4° C., thereby obtaining melanosomes. The concentration of melanosomes was measured using synthesized melanin (cat # M8631, sigma) as a standard. Keratinocytes (HEKn, cat # C0015C, Gibco) was deposited in a 6 well by 1×10^5 cells/well at a time and cultured for one day. Treatment with 10 μM of Compound 1 and compound 2 each was performed, culturing was performed for one day, separated melanosomes (5 μg/well) was added, and culturing was further performed for 2 days. […]

[5] = test system: melanin cells (human primary melanocyte, HEMn-DP); test: MTT assay in melanocytes; assay type: cell-based; details: 5, 10 and 50 μM, 4 days, FIG. 3
Description: (§2) In order to confirm a treatment concentration of Compound and Compound 2 obtained in the above Examples having no cytotoxicity thereby, an MTT assay was performed.
(§3) As a specific experimental method, in order to confirm cytotoxicity depending on the treatment concentration of Compound 1 and Compound 2, apoptosis analysis was performed in melanin cells (human primary melanocyte, HEMn-DP, cat # C2025C, Gibco) and keratinocytes (human primary keratinocyte, HEKn, cat # C0015C, Gibco). Cells were deposited to the number of 1×10^4 cells/well in a 96 well plate and cultured in an incubator for 24 hours under the condition of 37° C. and 5% CO2.
(§4) Each of Compound 1 and Compound 2 obtained in the above Examples was dissolved in distilled water (DW) at a concentration of 100 mM to form a concentrated solution, which was diluted with a medium, and treatment was performed at concentrations of 5, 10, and 50 μM. After 4 days, the medium of the plate was removed and the plate was treated with 100 μl of an MTT reagent (Sigma, 0.5 mg/ml). After 4 hours, the reagent was removed, dimethyl sulfoxide (DMSO) was added thereto, and absorbance was measured (wavelength: 570 nm, Epoch, BioTek). Here, cell viability was calculated as a percentage to absorbance of a control group (blank) which was not treated with the compound.

[6] = test system: human-derived keratinocytes (HEKn); test: melanin pigmentation in keratinocytes after melanin treatment; assay type: cell-based; details: 48 hours treatment, then melanin 2 hours; absorbance 400 nm; FIG. 9
Description: In order to analyze how Compound 1 and Compound 2 obtained in the above Examples affect melanin pigmentation, a degree of pigmentation inhibition by melanin treatment was analyzed.
As a specific experimental method, human-derived keratinocytes (HEKn, cat # C0015C, Gibco) were constantly deposited to the number of 1×10^5 in a 6 well plate for culturing and cultured in an incubator for 24 hours under the condition of […] and 5% CO2 in EpiLife (cat # MEPI500CA, Gibco). Each of Compound 1 or Compound 2 obtained in the above Examples was dissolved at a concentration of 100 mM to form a concentration solution, which was diluted in a medium at a concentration of 20 μM, 1 ml of each diluted solution was added to each well containing 1 ml of the medium first for treatment and cultured for 48 hours, and 10 mg/ml of melanin was added by 2 μl at a time and culturing was further performed for 2 hours. The medium was removed after completion of culturing, cells were separated from the plate using Trypsin-EDTA (cat # LS-015-09, WELGENE), transferred to a 1.5 ml tube and spun down, a photograph of the pellet was taken, and the absorbance of a solution of the pellet dissolved in 1N NaOH was measured (wavelength: 400 nm, Epoch, BioTek).

[7] = test system: keratinocytes (human primary keratinocyte, HEKn); test: MTT assay in keratinocytes; assay type: cell-based; details: 5, 10 and 50 μM, 4 days, FIG. 4
Description: as §2, §3, §4

[8] = test system: human-derived melanin cells (HEMn-DP); MITF, Tyrosinase mRNA; test: melanosome maturation-related genes (qPCR) and melanin content in melanin cells; assay type: cell-based; details: 1 ml of 20 μM added to 1 ml medium, 48 hours, FIGS. 5 to 7
Description: In order to analyze how Compound 1 and Compound 2 obtained in the above Examples affect melanosome maturation, an amount of melanosome maturation-related mRNA after treated with Compound 1 and Compound 2 was analyzed with qPCR and a melanin content was measured with absorbance.
As a specific experimental method, human-derived melanin cells (HEMn-DP, cat # C2025C, Gibco) were constantly deposited to the number of 1×10^5 in a 6 well plate for culturing and cultured in an incubator for 24 hours under the condition of 37° C. and 5% CO2 in M254 (cat # M-254-500, Gibco). Each of Compound 1 and Compound 2 was dissolved in DW at a concentration of 100 mM to form a concentration solution, which was diluted in a medium at a concentration of 20 μM, 1 ml of each diluted solution was added to each well containing 1 ml of the medium first for treatment and cultured for 48 hours, and RNeasy mini kit (cat #74106, QIAGEN) was used to extract RNA from melanin cells. […] Then, the experiment was performed identically, the medium was removed after completion of culturing, melanin cells were separated from the plate using Trypsin-EDTA (cat # LS-015-09, WELGENE), transferred to a 1.5 ml tube, and spun down, a photograph of the pellet was taken, and the absorbance of a solution of the pellet dissolved in 1N NaOH was measured (wavelength: 400 nm, Epoch, BioTek).

[9] = test system: PAR-2 gene in keratinocytes (HEKn); test: qPCR of endocytosis-related gene PAR2 in keratinocytes; assay type: cell-based, human; details: FIG. 8
Description: as §1
As a specific experimental method, from keratinocytes (HEKn, cat # C0015C, Gibco) treated with Compound 2, RNA was extracted using a RNeasy mini kit (cat #74106, QIAGEN), cDNA was synthesized using a cDNA synthesis kit (cat # FSQ-201, TOYOBO), and then a PAR2(F: CTCTCCTGCAGTGGCACCAT; R: GATGTGCCATCAACCTTACCAA) primer and POWER SYBR MASTER MIX (cat #4367659, Thermo) were mixed at a recommended ratio with the synthesized cDNA, and qPCR was performed with QuantStudio 3 equipment (cat # A28131, Thermo).

| tyrosinase activity inhibition [1] | SMILES | melanin amount in keratinocytes [2] | expression activity of LC3-II and ATG5 [2] | production of LC3-II (matured autophagosome) [3] | co-localization of increased autophagosomes with melanosomes [4] | cytotoxicity (MTT, cell viability) [5] | melanin pigmentation on keratinocytes [6] | cytotoxicity (MTT, cell viability) [7] | influence on melanosome maturation activity (tyrosinase and MITF mRNA, melanin content) [8] | expression of the PAR-2 gene [9] |
| --- | --- | --- | --- | --- | --- | --- | --- | --- | --- | --- |
| did not inhibit tyrosinase activity | CC(=O)N1C[C@H](O)C[C@H]1C(=O)NCCCC[C@H](NC(=O)[C@H](CCCCN(CC(=O)O)CC(=O)O)N(CC(=O)O)CC(=O)O)C(=O)O [Compound 1] | not decreased | inhibited | increased | co-localized with melanosomes | almost no cytotoxicity | effectively inhibited | almost no cytotoxicity | almost no influence |  |
| did not inhibit tyrosinase activity | O=C(O)CN(CCCC[C@@H](C(=O)N1C[C@H](O)C[C@H]1C(=O)O)N(CC(=O)O)CC(=O)O)CC(=O)O [Compound 2] | not decreased | inhibited |  | co-localized with melanosomes | almost no cytotoxicity | effectively inhibited | almost no cytotoxicity | almost no influence | decreased |
